The source of these data is US20100273733A1, “HIV Treatment” (priority 2009, published 2010).

The test system of series [1] is Jurkat (T-lymphocyte) cells. The series is described as follows: Selective toxicity, cell viability by MTT or XTT, uninfected control cells. The format is cell-based. The protocol:
For purposes of the following experiments and unless otherwise specified, the standard DEAE/Dex concentration is about 6.0 to about 6.9 molar DEAE/0.1 molar Dex.
Selective Toxicity. Wells with 10^6 Jurkat (T-lymphocyte) cells were infected with HIV at Multiplicities of Infection (MOI—the number of viral particles vs. infectable cells) of 0.1 or 0.01 for 4 hours. The cells are treated with Dex, DEAE, DEAE/DEX or control for 48 hours. Cell viability was assayed by MTT or XTT method. In the control (uninfected) cells, standard concentrations of Dex, DEAE and DEAE/Dex are non-toxic (within standard deviation).

In series [2] the test system is HIV. In words: HIV replication in JC53 cells, viral core antigen P24 antibody kit. It counts as cell-based. The following applies: Dex alone from greater or equal to 0.1 μmolar, effect topped out. As to the method: In another experiment, JC53 cells (HeLa cancer cells engineered to express CD4 and CCR5 receptors for HIV) are treated with HIV and the relevant agents to determine if DEAE inhibit HIV replication, using commercial antibody kit for viral core antigen P24 to assess level of virus production. […] The virus appears able to propagate and infect other cells. Dex alone indicated a 50% HIV activity inhibition from greater or equal to 0.1 μmolar. […] Similarly, 0.02 μmolar AZT alone has 40% inhibition of HIV replication.

`C[C@@H]1C[C@H]2[C@@H]3CCC4=CC(=O)C=C[C@]4(C)[C@@]3(F)[C@@H](O)C[C@]2(C)[C@@]1(O)C(=O)CO` [Dex, dexamethasone]: in series [1], the “toxicity (cell viability)” value is reported as “non-toxic”. This molecule yielded an HIV activity inhibition in series [2] of 50%.
